According to patent US20110313001A1, “TRIAZOLE DERIVATIVES FOR TREATMENT OF ALZHEIMER'S DISEASE” (priority 2008, published 2011):
Structures can show the parent of a compound that is named as a salt.

Tested on: Aβ(1-42)
Experiment: Cell-based γ-secretase assay, Aβ(1-42) inhibition
Conditions: Homo sapiens; SH-SY5Y neuroblastoma cells overexpressing SPA4CT
Protocol: Cell-Based γ-Secretase Assay
Human SH-SY5Y neuroblastoma cells overexpressing the direct γ-secretase substrate SPA4CT were induced with sodium butyrate (10 mM) for 4 hours prior to plating. Cells were plated at 35,000 cells/well/100 μl in 96-well plates in phenol red-free MEM/10% FBS, 50 mM HEPES, 1% Glutamine and incubated for 2 hrs at 37° C., 5% CO2.
Compounds for testing were diluted into Me2SO to give a ten point dose-response curve. Typically 10 μl of these diluted compounds in Me2SO were further diluted into 182 μl dilution buffer (phenol red-free MEM/10% FBS, 50 mM HEPES, 1% Glutamine) and 10 μl of each dilution was added to the cells in 96-well plates (yielding a final Me2SO concentration of 0.5%). Appropriate vehicle and inhibitor controls were used to determine the window of the assay.
After incubation overnight at 37° C., 5% CO2, 25 μl and 50 μl media were transferred into a standard Meso avidin-coated 96-well plate for detection of Aβ(40) and Aβ(42) peptides, respectively. 25 μl Meso Assay buffer (PBS, 2% BSA, 0.2% Tween-20) was added to the Aβ(40) wells followed by the addition of 25 μl of the respective antibody premixes to the wells:
Aβ(40) premix: 1 μg/ml ruthenylated G2-10 antibody, 4 μg/ml; and biotinylated 4G8 antibody diluted in Origen buffer
Aβ(42) premix: 1 μg/ml ruthenylated G2-11 antibody, 4 μg/ml; and biotinylated 4G8 antibody diluted in Origen buffer
(Biotinylated 4G8 antibody supplied by Signet Pathology Ltd; G2-10 and G2-11 antibodies supplied by Chemicon)
After overnight incubation of the assay plates on a shaker at 4° C., the Meso Scale Sector 6000 Imager was calibrated according to the manufacturer's instructions. After washing the plates 3 times with 150 μl of PBS per well, 150 μl Meso Scale Discovery read buffer was added to each well and the plates were read on the Sector 6000 Imager according to the manufacturer's instructions.
LD50 and IC50 values for inhibition of Aβ(40) and Aβ(42) were calculated by nonlinear regression fit analysis using the appropriate software (eg. Excel fit). The total signal and the background were defined by the corresponding Me2SO and inhibitor controls.

Row | IC50 [nM] | SMILES
1 | 203 | COc1cc(-c2cn(Cc3cc(C(F)(F)F)cc(C(F)(F)F)c3)nn2)ccc1-c1ccnc(C)c1 [Example 1, 4-{4-[1-(3,5-Bis-trifluoromethyl-benzyl)-1H-1,2,3-triazol-4-yl]-2-methoxy-phenyl}-2-methyl-pyridine trifluoromethansulfonate salt]
2 | 392 | COc1cc(-c2cn(Cc3ccc(-c4nc5ccccc5o4)cc3)nn2)ccc1-c1ccnc(C)c1 [Example 5]
3 | 598 | COc1cc(-c2cn(Cc3cc(F)cc(Cl)c3)nn2)ccc1-c1ccnc(C)c1 [Example 4]
4 | 172 | COc1cc(-c2cn(Cc3ccc4c(c3)C(C)(C)CCC4(C)C)nn2)ccc1-c1ccnc(C)c1 [Example 6]
5 | 335 | COc1cc(-c2cn(Cc3ccc(C(C)(C)C)cc3)nn2)ccc1-c1ccnc(C)c1 [Example 3]
